These results are taken from US9902716B2, “Fluorinated benzofuranyl-pyrimidine derivatives containing a sulfone group” (Bayer Pharma Aktiengesellschaft, priority 2014, dated 2018).

The subject of this experiment is A2780 cells. Briefly: Proliferation assay A2780 (Method 3, crystal violet). In kind it is cell-based. The note with it: Homo sapiens, 96 h; A2780, 4 days incubation; read-out: Inhibition of A2780 cell proliferation IC50. The method, then: Cultivated tumour cells (HeLa, human cervical tumour cells, ATCC CCL-2; NCI-H460, human non-small cell lung carcinoma cells, ATCC HTB-177; A2780, human ovarian carcinoma cells, ECACC #93112519; DU 145, hormone-independent human prostate carcinoma cells, ATCC HTB-81; HeLa-MaTu-ADR, multidrug-resistant human cervical carcinoma cells, EPO-GmbH Berlin; Caco-2, human colorectal carcinoma cells, ATCC HTB-37; B16F10, mouse melanoma cells, ATCC CRL-6475) were plated at a density of 5,000 cells/well (DU145, HeLa-MaTu-ADR), 3,000 cells/well (NCI-H460, HeLa), 2,500 cells/well (A2780), 1,500 cells/well (Caco-2), or 1,000 cells/well (B16F10) in a 96-well multititer plate in 200 μL of their respective growth medium supplemented 10% fetal calf serum. […] Cell proliferation was determined by staining the cells with crystal violet: the cells were fixed by adding 20 μl/measuring point of an 11% glutaric aldehyde solution for 15 minutes at room temperature. […] The extinction was determined by photometry at a wavelength of 595 nm. The change of cell number, in percent, was calculated by normalization of the measured values to the extinction values of the zero-point plate (=0%) and the extinction of the untreated (0 μm) cells (=100%). […]

For `Cc1cc(CS(C)(=O)=O)cc(Nc2ncc(F)c(-c3ccc(F)c4ccoc34)n2)c1` [Example 4, 5-Fluoro-4-(4-fluoro-1-benzofuran-7-yl)-N-{3-methyl-5-[(methylsulfonyl)methyl]-phenyl}pyrimidin-2-amine], the IC50 came out at 38 nM.
Then `CS(=O)(=O)Cc1cccc(Nc2ncc(F)c(-c3ccc(F)c4ccoc34)n2)c1` [Example 1, 5-Fluoro-4-(4-fluoro-1-benzofuran-7-yl)-N-{3-[(methylsulfonyl)methyl]-phenyl}pyrimidin-2-amine], with 90 nM.
